This experiment has as its system KB cells (oral carcinoma cells). As to the kind of experiment: measurement of degree of cell death by flow cytometry (annexin V-ferrocene derivative / FITC-cucurbituril derivative). It counts as cell-based. Conditions: 0.5 μM (0.3 μg/mL) doxorubicin, 3 days, versus sample not treated. The protocol: After a ferrocene derivative bound to annexin V, which is known as a protein that can selectively bind to surfaces of dead cells, was treated on cells induced to die using an anti-cancer drug, the cells were treated with an FITC-bound cucurbituril derivative, and the degree of cell death was measured through flow cytometry.
2 mL of […] culture solution (containing 10% FCS) and about 10^6 KB cells (oral carcinoma cells) (obtained from the Korean Cell Line Bank (KCLB)) were cultured in two 6-well cell culture dishes at 37° C. in a 5% CO2 condition for 48 hours.
Next, 2 mL of the RPMT-1640 culture solution (containing 10% FCS) in one of the 6-well cell culture dishes was replaced by the same, fresh culture solution, and 2 mL of the RPMT-1640 culture solution in the other 6-well cell culture dish was replaced by 0.5 μM (0.3 μg/mL) of doxorubicin, and the two culture dishes were incubated at 37° C. in a 5% CO2 condition for 3 days.
The culture solution in the two cell culture dishes incubated in (1) was removed. […]
Next, the degree of cell depth in each of the samples was measured through flow cytometry (FACSCalibur, Becton Dickinson Corp., Ex=488 nm, Em=530 nm (for FITC detection).
On the technique in general: Flow cytometry measures light scatter and fluorescence of single cells or particles in a stream.

For the molecule `COc1cccc2c1C(=O)c1c(O)c3c(c(O)c1C2=O)C[C@@](O)(C(=O)CO)C[C@@H]3O[C@H]1C[C@H](N)[C@H](O)[C@H](C)O1` [doxorubicin], the “degree of cell death (FITC signal, flow cytometry)” value is recorded as “most cells in the doxorubicin-treated sample died”.

Values taken from patent publication US7718128B2, “Application using non-covalent bond between a cucurbituril derivative and a ligand” (Postech Foundation, priority 2005, dated 2010).
